# Laboratory results as given in the supplement of paper PMC4862054.
# Legend:
# Details in all cases: incubation time: 72 h
# BT-549 = experiment: normalised viability (% of control), CellTiter-Blue; higher = more viable cells (about 100 = DMSO control)
# In short: (§1)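 Normalised viability is given for a single listed concentration of the series. In 384-well plates, breast cancer cell lines were incubated 72 h with compound, then read with CellTiter-Blue (2 h, 37 °C) at 560/590 nm. Per-plate scaling set vehicle to 100 and a positive kill control to 0, with Z'-factor quality control.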
# MFM-223 = experiment: as above
# In short: as §1
# MDA-MB-231 [1] = experiment: as above
# In short: as §1
# CAL-148 [2] = experiment: as above
# In short: as §1
# DU-4475 [3] = experiment: as above
# In short: as §1
# SK-BR-3 = experiment: as above
# In short: as §1
# HDQ-P1 = experiment: as above
# In short: as §1
# CAL-51 [4] = experiment: as above
# In short: as §1
# CAL-85-1 [5] = experiment: as above
# In short: as §1
# MDA-MB-468 = experiment: as above
# In short: as §1
# BT-474 = experiment: as above
# In short: as §1
# MDA-MB-436 = experiment: as above
# In short: as §1
# Hs578T = experiment: as above
# In short: as §1
# HCC1143 = experiment: as above
# In short: as §1
# MDA-MB-453 [6] = experiment: as above
# In short: as §1
# HCC1937 = experiment: as above
# In short: as §1
# CAL-120 = experiment: drug sensitivity score (DSS), CellTiter-Glo (DSS (AUC-based score)); higher = stronger drug effect (viability inhibition or cytotoxicity); extreme values may be limits of the assay
# In short: (§2)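 Breast cancer cells were seeded into 384-well plates containing compound at 5 concentrations in 10-fold steps over a compound-specific 10,000-fold range and incubated 72 h. After CellTox Green and CellTiter-Glo readings, each plate was normalised to 0.1 % DMSO and a positive kill control. The drug sensitivity score rests on the area under the fitted dose-response curve.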
# MDA-MB-231 [7] = experiment: as above
# In short: as §2
# CAL-148 [8] = experiment: as above
# In short: as §2
# DU-4475 [9] = experiment: as above
# In short: as §2
# HCC1599 = experiment: as above
# In short: as §2
# CAL-51 [10] = experiment: as above
# In short: as §2
# CAL-85-1 [11] = experiment: as above
# In short: as §2
# MDA-MB-453 [12] = experiment: as above
# In short: as §2
smiles,measurement,setting,value
CC[C@H](Nc1ncnc2[nH]cnc12)c1nc2cccc(F)c2c(=O)n1-c1ccccc1 [CAL-101],normalised viability,BT-549; 10 nM,100%
same,normalised viability,BT-549; 1000 nM,96.6%
same,normalised viability,BT-549; 10000 nM,71.8%
same,normalised viability,MFM-223; 10 nM,90.3%
same,normalised viability,MFM-223; 1000 nM,89.9%
same,normalised viability,MFM-223; 10000 nM,79.9%
same,normalised viability,MDA-MB-231 [1]; 10 nM,89.9%
same,normalised viability,MDA-MB-231 [1]; 1000 nM,92.1%
same,normalised viability,MDA-MB-231 [1]; 10000 nM,80.5%
same,normalised viability,CAL-148 [2]; 3 nM,91.9%
same,normalised viability,CAL-148 [2]; 30 nM,92.1%
same,normalised viability,CAL-148 [2]; 100 nM,88.5%
same,normalised viability,DU-4475 [3]; 3 nM,105%
same,normalised viability,DU-4475 [3]; 30 nM,83.2%
same,normalised viability,DU-4475 [3]; 100 nM,86.2%
same,normalised viability,SK-BR-3; 10 nM,101%
same,normalised viability,SK-BR-3; 1000 nM,94.7%
same,normalised viability,SK-BR-3; 10000 nM,59.1%
same,normalised viability,HDQ-P1; 3 nM,90%
same,normalised viability,HDQ-P1; 30 nM,101%
same,normalised viability,HDQ-P1; 100 nM,102%
same,normalised viability,CAL-51 [4]; 3 nM,93%
same,normalised viability,CAL-51 [4]; 30 nM,92%
same,normalised viability,CAL-51 [4]; 100 nM,98%
same,normalised viability,CAL-85-1 [5]; 3 nM,88.6%
same,normalised viability,CAL-85-1 [5]; 30 nM,75.9%
same,normalised viability,CAL-85-1 [5]; 100 nM,78%
same,normalised viability,MDA-MB-468; 10 nM,110%
same,normalised viability,MDA-MB-468; 1000 nM,96%
same,normalised viability,MDA-MB-468; 10000 nM,62.6%
same,normalised viability,BT-474; 10 nM,108%
same,normalised viability,BT-474; 1000 nM,109%
same,normalised viability,BT-474; 10000 nM,90.9%
same,normalised viability,MDA-MB-436; 10 nM,111%
same,normalised viability,MDA-MB-436; 1000 nM,107%
same,normalised viability,MDA-MB-436; 10000 nM,95.7%
same,normalised viability,Hs578T; 10 nM,116%
same,normalised viability,Hs578T; 1000 nM,112%
same,normalised viability,Hs578T; 10000 nM,86.8%
same,normalised viability,HCC1143; 10 nM,99.4%
same,normalised viability,HCC1143; 1000 nM,96.1%
same,normalised viability,HCC1143; 10000 nM,76.2%
same,normalised viability,MDA-MB-453 [6]; 3 nM,97.5%
same,normalised viability,MDA-MB-453 [6]; 30 nM,91.7%
same,normalised viability,MDA-MB-453 [6]; 100 nM,89.8%
same,normalised viability,HCC1937; 10 nM,106%
same,normalised viability,HCC1937; 1000 nM,94.5%
same,normalised viability,HCC1937; 10000 nM,92.4%
O=C(O)CCCCC(CCSCc1ccccc1)SCc1ccccc1 (configuration not stated) [CPI-613],drug sensitivity score,CAL-120,0
same,drug sensitivity score,MDA-MB-231 [7],0
same,drug sensitivity score,CAL-148 [8],0
same,drug sensitivity score,DU-4475 [9],0
same,drug sensitivity score,HCC1599,0
same,drug sensitivity score,CAL-51 [10],0
same,drug sensitivity score,CAL-85-1 [11],0
same,drug sensitivity score,MDA-MB-453 [12],0
O=C(/C=C/c1cccnc1)NCCCCC1CCN(C(=O)c2ccccc2)CC1 [Daporinad],drug sensitivity score,CAL-120,20.9
same,drug sensitivity score,MDA-MB-231 [7],14.8
same,drug sensitivity score,CAL-148 [8],6.26
same,drug sensitivity score,DU-4475 [9],25.2
same,drug sensitivity score,HCC1599,29.4
same,drug sensitivity score,CAL-51 [10],0
same,drug sensitivity score,CAL-85-1 [11],22
same,drug sensitivity score,MDA-MB-453 [12],26.8
O=C(/C=C/c1cccnc1)NCCCCC1CCN(C(=O)c2ccccc2)CC1 [FK-866],normalised viability,BT-549; 1 nM,95%
same,normalised viability,BT-549; 100 nM,10.9%
same,normalised viability,BT-549; 1000 nM,10.7%
same,normalised viability,MFM-223; 1 nM,108%
same,normalised viability,MFM-223; 100 nM,21.2%
same,normalised viability,MFM-223; 1000 nM,20.1%
same,normalised viability,MDA-MB-231 [1]; 1 nM,106%
same,normalised viability,MDA-MB-231 [1]; 100 nM,27.9%
same,normalised viability,MDA-MB-231 [1]; 1000 nM,23.2%
same,normalised viability,CAL-148 [2]; 0.3 nM,96.4%
same,normalised viability,CAL-148 [2]; 3 nM,94.5%
same,normalised viability,CAL-148 [2]; 10 nM,91.4%
same,normalised viability,DU-4475 [3]; 0.3 nM,104%
same,normalised viability,DU-4475 [3]; 3 nM,77.2%
same,normalised viability,DU-4475 [3]; 10 nM,86%
same,normalised viability,SK-BR-3; 1 nM,101%
same,normalised viability,SK-BR-3; 100 nM,100%
same,normalised viability,SK-BR-3; 1000 nM,111%
same,normalised viability,HDQ-P1; 0.3 nM,109%
same,normalised viability,HDQ-P1; 3 nM,112%
same,normalised viability,HDQ-P1; 10 nM,98%
same,normalised viability,CAL-51 [4]; 0.3 nM,113%
same,normalised viability,CAL-51 [4]; 3 nM,95.5%
same,normalised viability,CAL-51 [4]; 10 nM,72.8%
same,normalised viability,CAL-85-1 [5]; 0.3 nM,103%
same,normalised viability,CAL-85-1 [5]; 3 nM,97.7%
same,normalised viability,CAL-85-1 [5]; 10 nM,91.6%
same,normalised viability,MDA-MB-468; 1 nM,91.9%
same,normalised viability,MDA-MB-468; 100 nM,1.9%
same,normalised viability,MDA-MB-468; 1000 nM,1.73%
same,normalised viability,BT-474; 1 nM,112%
same,normalised viability,BT-474; 100 nM,56.8%
same,normalised viability,BT-474; 1000 nM,58.2%
same,normalised viability,MDA-MB-436; 1 nM,96.2%
same,normalised viability,MDA-MB-436; 100 nM,23.5%
same,normalised viability,MDA-MB-436; 1000 nM,17.7%
same,normalised viability,Hs578T; 1 nM,99.9%
same,normalised viability,Hs578T; 100 nM,15%
same,normalised viability,Hs578T; 1000 nM,15.9%
same,normalised viability,HCC1143; 1 nM,85.6%
same,normalised viability,HCC1143; 100 nM,24.4%
same,normalised viability,HCC1143; 1000 nM,21.3%
same,normalised viability,MDA-MB-453 [6]; 0.3 nM,111%
same,normalised viability,MDA-MB-453 [6]; 3 nM,31.7%
same,normalised viability,MDA-MB-453 [6]; 10 nM,22.3%
same,normalised viability,HCC1937; 1 nM,93.3%
same,normalised viability,HCC1937; 100 nM,64.2%
same,normalised viability,HCC1937; 1000 nM,42.5%
